The values below come from patent US11639483B2, “Macrocyclic musk lactones and uses thereof” (PHYTO TECH CORP., priority 2021, dated 2023).

Data set [1] is described as follows: Appearance of musk in laundry detergent base. The format is physicochemical. The protocol:
Furthermore, musk lactone mixture A and other musks were also evaluated at two different loadings in laundry detergent base, as shown in Tables 38 and 39.

Data set [2] is described as follows: Appearance (solubility) of shampoo with musk, increased load. The format is physicochemical.
Data set [3] is described as follows: In use comparison of musk lactone mixture A with commercial musks in unperfumed laundry detergent, expert panel. The note with it: for DAMP HED / DAMP STR: damp towel; for DAMP HED / DRY TWL 1 DAY HED / DRY TWL 7 DAYS HED / DRY TWL 15 DAYS HED / JAR HED: hedonic; for DAMP STR / DRY TWL 1 DAY STR / DRY TWL 7 DAYS STR / DRY TWL 15 DAYS STR / JAR STR: strength; for DRY TWL 1 DAY HED / DRY TWL 1 DAY STR: dry towel 1 day; for DRY TWL 7 DAYS HED / DRY TWL 7 DAYS STR: dry towel 7 days; for DRY TWL 15 DAYS HED / DRY TWL 15 DAYS STR: dry towel 15 days; for JAR STR: jar (point of purchase). Further details: species or system human. The protocol: Olfactive evaluations in use were performed by an expert panel. The range of materials evaluated was comprehensive, including musk products commercially available: Nitromusk, Polycyclic and Macrocyclic categories (Ambrettolide, Dihydro Ambrettolide, Scentolide, Muscone, Muscenone, Velvione, Musk Ambrette, Edenolide, Ethylene Brassylate, Galaxolide, Tonalide, Habanolide, Globanone, Macrolide, Oxalide T and others).
Evaluation samples were prepared using unperfumed laundry detergent (formulation example in Example 4, Table 10) at two different dosages: 10% Solution @ 0.8% (yielding 0.08% musk lactone mixture A) or 1.5% (yielding 0.15% musk lactone mixture A) driven by relative product performance in formulas and practical laboratory practices to execute the comparisons. The concentration of musk lactone mixture A in each evaluation was at the same concentration as the commercial musk.
The evaluations were performed in use stages: Jar (POP—Point of purchase), damp towel, Dry towel (1 day) and Storage Dry towel (7 days and 15 days). A five points scale was utilized, rating both strength and hedonic character: • Strength (STR) is rated as the overall scent power coming up from the substrate, due to physicochemical properties and commonly described as a combination of diffusion, bloom, body and or volume perceptions.

A short description of a further data set: Odor strength on blotter. Further details: species or system human. The source says: The results are presented below in Table 23a and Table 23b:
Data set [4] is described as follows: Fiber substantivity: odor strength on fabric treated with softener, 14 member-panel. Set-up: species or system human. The settings on record: 70% in isopropyl myristate dosed 0.25% w/w in softener; line dried 20 hours; 9 (very good) to 0 (very poor). The protocol:
Additionally, substantivity is evaluated olfactively by a panel after treating samples of substrate with a perfumed product, such as a fabric softener for cotton fabric or a shampoo for hair, containing the lactones described herein or other musk fragrances for comparison, according to standard procedures described below. Thus, the evaluation is essentially a relative odor intensity measurement. It is known that the perceived odor intensity of mixtures of perfume ingredients when evaluated as such is generally less than the sum of the perceived odors of the components. Thus, the perceived odor intensity of a 1:1 mixture of 2 of the components of the lactones described herein would be expected to be lower than the sum of the intensities of the separate components, i.e. in such mixtures odor suppression is generally found. On the contrary, the perceived odor intensity on substrate treated with the lactones described herein is at least equal to, but in most cases greater than the perceived intensity of substrate treated with equal amounts of the separate components.
Comparison of the fiber substantivity of single polycyclic musks and macrocyclic musks with musk mixtures is described herein. 70% Solutions in isopropyl myristate of the musks and musk mixtures to be tested are dosed at 0.25% w/w in a single Arquad fabric softener (GT 117B). The test is carried out by rinsing “6″×6” (weight: 16 g) cotton terry towel pieces at ambient temperature in a tergotometer according to the procedure below: • 3 g of fabric softener containing the test musk is added to 1 liter of water and agitated for one minute to disperse. The fabric piece is added and washed for 10 minutes with constant agitation at 100 rpm. On completion of the wash cycle, the pieces are hand wringed and line dried for 20 hours. • The cloths are assessed olfactively by a 14 member-panel. A 10-point scale is used running from 9 (very good) to 0 (very poor).

The mark [5] stands for this setting: 0.04% Musk in laundry detergent base.
[6] abbreviates: 0.08% Musk in laundry detergent base.

Molecules are shown by their SMILES.

As for `O=C1CCCCC/C=C\CCCCCCCCO1` [Ambrettolide], the Appearance entry in data set [1] (setting [5]) is given as “Very cloudy”. The Appearance result in data set [1] (setting [6]) is given as “Phase separation”. For the same compound, the “appearance of shampoo formula” value in data set [2] (0.3% musk with 0.2% fruity floral fragrance oil) is on record as “cloudy”. The “appearance of shampoo formula” value in data set [2] (lower level of ambrettolide (0.2%)) is “remaining clear”. In data set [3] (10% IPM @0.8%), the “DAMP HED” value is “+ ((+) directionally superior)”, the “DAMP STR” value is “−− ((−−) Significantly inferior)”, the “DRY TWL 1 DAY HED” value is “−/− ((−) directionally inferior)” and the “DRY TWL 1 DAY STR” value is on record as “−/− ((−) directionally inferior)”. Further, in data set [3] (10% IPM @0.8%), the “DRY TWL 7 DAYS HED” value was “−/− ((−) directionally inferior)”, the “DRY TWL 7 DAYS STR” value is on record as “−/− ((−) directionally inferior)”, the “DRY TWL 15 DAYS HED” value is given as “−/− ((−) directionally inferior)” and the “DRY TWL 15 DAYS STR” value is “−/− ((−) directionally inferior)”. Besides, in data set [3] (10% IPM @0.8%), the “JAR STR” value is given as “−− ((−−) Significantly inferior)” and the “JAR HED” value is reported as “− ((−) directionally inferior)”.
For `CC1COCc2cc3c(cc21)C(C)(C)C(C)C3(C)C` (stereo not shown) [Galaxolide, galaxolide], the Appearance entry in data set [1] (setting [5]) is given as “Very cloudy”. For the same compound, the Appearance result in data set [1] (setting [6]) was “Phase separation”. The “ODOR STRENGTH ON BLOTTER, Rating (10-point scale)” value in the data set “Odor strength on blotter” is on record as 5.8. In data set [3] (10% IPM @1.5%), the “DAMP HED” value was “−−/−− ((−−) Significantly inferior)”, the “DAMP STR” value is reported as “−−/−− ((−−) Significantly inferior)”, the “DRY TWL 1 DAY HED” value is on record as “−−/−− ((−−) Significantly inferior)” and the “DRY TWL 1 DAY STR” value is “−−/−− ((−−) Significantly inferior)”. Moreover, in data set [3] (10% IPM @1.5%), the “DRY TWL 7 DAYS HED” value is given as “−−/−− ((−−) Significantly inferior)”, the “DRY TWL 7 DAYS STR” value was “−−/−− ((−−) Significantly inferior)”, the “DRY TWL 15 DAYS HED” value is on record as “−−/−− ((−−) Significantly inferior)” and the “DRY TWL 15 DAYS STR” value is listed as “−−/−− ((−−) Significantly inferior)”. Besides, in data set [3] (10% IPM @1.5%), the “JAR STR” value was “−−/−− ((−−) Significantly inferior)” and the “JAR HED” value is listed as “−−/−− ((−−) Significantly inferior)”. Also, the “ODOR STRENGTH ON FABRIC TREATED WITH SOFTENER, Rating (10-point scale)” value in data set [4] was found to be 3.8.
